{"source": "paper PMC2796824", "about": "(Journal of biomolecular screening, 2009)", "key": {"N[C@@H](CS)C(=O)O": {"tested_on": "N[C@@H](CS)C(=O)O", "test": "purified protein, by the assay type"}, "MBP": {"biological_target": "MBP (Escherichia coli, UniProt P0AEX9)", "test": "Isothermal titration calorimetry with MBP tag alone", "assay_type": "binding", "settings": "ITC, 1-site model, 25 °C"}, "MBP-MshC [1]": {"biological_target": "T1, MBP-MshC (Mycobacterium tuberculosis, UniProt P9WJM9)", "T1 sequence (P9WJM9 whole entry, looked up)": "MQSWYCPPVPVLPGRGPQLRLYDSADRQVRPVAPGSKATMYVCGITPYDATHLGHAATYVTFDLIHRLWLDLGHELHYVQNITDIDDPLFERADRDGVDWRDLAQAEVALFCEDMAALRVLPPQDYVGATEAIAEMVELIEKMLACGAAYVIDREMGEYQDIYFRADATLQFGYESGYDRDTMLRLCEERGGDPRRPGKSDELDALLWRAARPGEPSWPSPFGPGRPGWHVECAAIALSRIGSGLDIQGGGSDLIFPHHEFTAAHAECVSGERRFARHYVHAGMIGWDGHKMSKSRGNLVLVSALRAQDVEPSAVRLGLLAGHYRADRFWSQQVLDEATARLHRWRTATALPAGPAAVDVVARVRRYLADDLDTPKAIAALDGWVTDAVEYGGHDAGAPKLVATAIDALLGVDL", "test": "Isothermal titration calorimetry with MBP-MshC", "assay_type": "binding"}, "MBP-MshC [2]": {"biological_target": "T1, MBP-MshC", "test": "Mode of inhibition of dequalinium", "assay_type": "biochemical"}, "MBP-MshC [3]": {"biological_target": "T1, MBP-MshC", "test": "Confirmatory assay: CGI production by fluorescence-detected HPLC", "assay_type": "biochemical"}, "MBP-MshC [4]": {"biological_target": "T1, MBP-MshC", "test": "MshC coupled luminescent assay", "assay_type": "biochemical"}, "[5]": {"settings": "IC50, quantitative CGI-HPLC confirmatory assay"}}, "note": "Values joined by “and” are separate entries in the source; they are usually repeats but may differ in a detail not shown here. Equal entries are not always repeated.", "data": [{"compound": "MBP-MshC (Mycobacterium tuberculosis H37Rv)", "values": [{"measurement": "Km", "setting": "N[C@@H](CS)C(=O)O", "result": "140 ± 40", "unit": "µM"}, {"measurement": "Vmax", "setting": "N[C@@H](CS)C(=O)O", "result": "85 ± 7", "unit": "nmol/min/mg"}]}, {"compound": "Cc1cc(N)c2ccccc2[n+]1CCCCCCCCCC[n+]1c(C)cc(N)c2ccccc21", "note": "[compound 1, dequalinium chloride]", "values": [{"measurement": "Kd", "setting": "MBP", "result": "8.5 µM and 7 to 8.5 µM"}, {"measurement": "Kd", "setting": "MBP-MshC [1]", "result": "7.1 ± 0.8", "unit": "µM"}, {"measurement": "mode of inhibition", "setting": "MBP-MshC [2]; with respect to ATP (varied 31.3 to 4000 μM)", "result": "AT P-competitive inhibitor"}, {"measurement": "mode of inhibition", "setting": "MBP-MshC [2]; with respect to GI (varied 34-1100 μM)", "result": "synergy"}, {"measurement": "IC50", "setting": "MBP-MshC [3]; [5]", "result": "24 µM and ~24 µM"}]}, {"compound": "Nc1ncnc2c1ncn2[C@@H]1O[C@H](COS(=O)(=O)NC(=O)[C@@H](N)CS)[C@@H](O)[C@H]1O", "note": "[CysSA, 5′-O-[N-(L-cysteinyl)sulfamoyl] adenosine]", "values": [{"measurement": "IC50", "setting": "MBP-MshC [4]", "result": "0.24 ± 0.001", "unit": "µM"}]}, {"compound": "Cc1cc(N)c2ccccc2[n+]1C", "note": "[1a, 1-methyl 4-aminoquinaldinium iodide]", "values": [{"measurement": "IC50", "setting": "MBP-MshC [3]; [5]", "result": 830, "unit": "µM"}]}, {"compound": "C[n+]1ccc(Nc2ccc(NC(=O)c3ccc(Nc4cc[n+](C)c5ccc([N+](=O)[O-])cc45)cc3[N+](=O)[O-])cc2)cc1", "note": "[compound 2]", "values": [{"measurement": "IC50", "setting": "MBP-MshC [3]; quantitative CGI-HPLC confirmatory assay", "result": "~500", "unit": "µM"}]}]}
